pEC50, pKi: −log10 of the molar value. Values belong to the compound of their own block, whether it stands above or below them.
Columns and labels:
[1] = target: two-color SERCA (2CS) biosensor (SERCA2a) (UniProt P16615); assay: 2CS FRET biosensor in living HEK293 cells, spectral mode (spectral unmixing plate reader); assay type: cell-based, human; details: for 2CS FRET hit identification: NCC screen, reproducible and dose-dependent FRET decrease
Experimental: HEK293 cells were maintained in phenol-red-free DMEM from Gibco (Waltham, Mass.) supplemented with 2 mM GlutaMAX (Gibco), 10% fetal bovine serum (FBS) from Atlanta Biologicals (Laweranceville, Ga.), and 1 IU/mL penicillin/streptomycin (Gibco) and grown at 37° C. with 5% CO2. Stable clones expressing the FRET biosensors and corresponding donor- and acceptor-labeled control cell lines were established as described previously [3]. Briefly, cells were transfected with the recombinant DNA following established protocols lipofectaimine 3000 from Invitrogen (Carlsbad, Calif.). 48 hours post transfection the cells were placed under G418 (500 μg/mL) from Sigma (St. Louis, Mo.), antibiotic selection, and plated to allow for the growth of single colonies. Clones were isolated 2-3 weeks after transfection and antibiotic selection. […] The cell lines were expanded in T225 flasks from Corning (Corning, N.Y.), harvested by treatment with Tryple (Invitrogen), washed three times in phosphate buffer solution (PBS) with no magnesium or calcium Thermo Fischer (Waltham, Mass.)) and centrifuged at 300 g, filtered using 70 μm cell strainers (Corning), and diluted to 10^6 cells/mL using an automated countess cell counter from Invitrogen. In studies with cyan and yellow fluorescent protein biosensors, transient transfections were performed. In these studies, cells were harvested and prepared as described above, 48 hours after transfection. Cell viability was assessed using trypan blue. […]
The observed fluorescence emission spectrum F(λ) was fitted by least-squares minimization to a linear combination of component spectra
where D is donor, A is acceptor, C is cell autofluorescence, and W is water Raman, and a, b, c, d are the weighting (scalar) coefficients determined from the fit. The fitted spectrum for each well was determined using least squares minimization with Matlab (Mathworks) to solve for the scalar coefficients.
For an intramolecular FRET sensor with a 1:1 ratio of donor D and acceptor A molecules, FRET efficiency (FRET) was determined from (Eq. 10).

[2] = Water Raman spectrum of compound-only wells (compound aggregation); assay type: physicochemical; details: dose-dependent
From the text: The high sensitivity of spectral mode is shown by the fluorescence signal of the water Raman spectrum.

[3] = tested on: endoplasmic reticulum calcium (D1ER sensor); assay: D1ER cameleon calcium FRET sensor in HEK293 cells (ER calcium depletion), spectral mode; assay type: cell-based, human; details: for T50 (rate of calcium depletion): saturating drug concentrations, Hill fit of time course
Experimental: Investigation of a CFP and YFP FRET pair was evaluated with the well-known cameleon calcium sensor, in which the calmodulin-binding (M13) domain of myosin light chain kinase (MLCK) and calcium-binding domain of calmodulin are fused together, and located between two fluorescence proteins (eCFP/mCitrine). These calcium sensors have allowed cellular [Ca^2+] to be monitored more directly and reliably than using calcium-sensitive dyes. The endoplasmic reticulum-targeted cameleon sensor (D1ER) was selected because it is known to be sensitive to the SERCA inhibitors thapsigargin, CPA, and BHQ. Instead of detecting direct ligand binding, as in the 2CS studies reported above, the D1ER sensor can be used to monitor changes in ER calcium level. Upon SERCA inhibition, calcium is no longer pumped into the ER, leading to calcium depletion through various mechanisms including IP3-gated receptors and ryanodine receptors. D1ER senses these changes as calcium binding leads to a conformational rearrangement of the biosensors, increasing FRET between CFP and YFP. Therefore, calcium depletion due to SERCA inhibition is detected as a decrease in FRET.
A HEK293 stable clone with constitutive expression of the D1ER cameleon calcium sensor was generated using G418 antibiotic selection. […] Cells were harvested and dispensed into 384-well plates containing the same concentrations of thapsigargin, CPA, and BHQ, as previously evaluated with 2CS (FIG. 9). D1ER FRET was monitored only in spectral mode, because the CFP donor cannot be excited effectively by the 473 nm laser used in lifetime mode. ER calcium was monitored by repeatedly scanning the 384 well plate at three-minute intervals over a 120-minute period. […]
After resuspension and dilution in PBS, the cells were constantly and gently stirred using a magnetic stir bar at room temperature, keeping the cells in suspension and evenly distributed to avoid clumping. […] Concentration-response curves (CRC) of the FRET hits were assessed at multiple time points by repeatedly scanning the 384-well plates. […] The D1ER calcium sensor monitored changes in endoplasmic reticulum [Ca^2+] […] The methods and protocols for the D1ER cells were identical to those for 2CS, with the exception that they were evaluated only in spectral mode, and the 384-well plates containing compound CRCs were scanned every three minutes for two-hours.
SERCA malfunction can result in decreased ATPase activity and/or calcium pumping efficiency. ER calcium content was monitored over time using the endoplasmic-localized cameleon calcium FRET sensor (D1ER). […] Briefly, D1ER FRET changes were monitored over time by repeatedly (every 3 minutes) scanning a 384-well plate containing varying concentrations of the 2CS FRET hits. D1ER cells were assessed immediately after compound incubation. […]

cytosolic calcium = details: literature; cited from earlier work
[4] = target: two-color SERCA (2CS) biosensor (SERCA2a) (UniProt P16615); assay: 2CS FRET biosensor in living HEK293 cells, fluorescence lifetime mode; assay type: cell-based, human
Experimental: HEK293 cells were maintained in phenol-red-free DMEM from Gibco (Waltham, Mass.) supplemented with 2 mM GlutaMAX (Gibco), 10% fetal bovine serum (FBS) from Atlanta Biologicals (Laweranceville, Ga.), and 1 IU/mL penicillin/streptomycin (Gibco) and grown at 37° C. with 5% CO2. Stable clones expressing the FRET biosensors and corresponding donor- and acceptor-labeled control cell lines were established as described previously. Briefly, cells were transfected with the recombinant DNA following established protocols lipofectaimine 3000 from Invitrogen (Carlsbad, Calif.). 48 hours post transfection the cells were placed under G418 (500 μg/mL) from Sigma (St. Louis, Mo.), antibiotic selection, and plated to allow for the growth of single colonies. Clones were isolated 2-3 weeks after transfection and antibiotic selection. The stability of each clone was assessed by flow cytometry and confocal microscopy (data not shown). The cell lines were expanded in T225 flasks from Corning (Corning, N.Y.), harvested by treatment with Tryple (Invitrogen), washed three times in phosphate buffer solution (PBS) with no magnesium or calcium Thermo Fischer (Waltham, Mass.)) and centrifuged at 300 g, filtered using 70 μm cell strainers (Corning), and diluted to 10^6 cells/mL using an automated countess cell counter from Invitrogen. In studies with cyan and yellow fluorescent protein biosensors, transient transfections were performed. In these studies, cells were harvested and prepared as described above, 48 hours after transfection. Cell viability was assessed using trypan blue.
Cells were dispensed using a Multidrop Combi liquid dispenser from Thermo Fischer (Pittsburgh, Pa.) at a density of 10^6/mL. Compounds were diluted in DMSO and dispensed either using a Mosquito liquid handeler from TTP Labtech (Melbourn, UK) or a Mantis liquid dispenser from Formulatrix (Bedford, Mass.). The known SERCA inhibitors thapsigargin (TG, Sigma), 1,4-dihydroxy-2,5-di-tert-butylbenzene (BHQ) from Tocris (Minneapolis, Minn.), and cyclopiazonic acid (CPA, Tocris) were diluted at 50× concentrations and subsequently serially diluted in 96-well mother plates prior to liquid dispensing. […]
In its spectral unmixing plate reader (SUPR) mode, the instrument provides direct high-throughput detection of the complete fluorescence emission spectrum, (emission vs wavelength), with excitation provided by a 473 nm continuous wave laser. Spectra are recorded using a grating-based fiber optic input spectrograph equipped with linear-array CCD detector (Sony ILX511B). The recorded wavelength range in these experiments spanned the entire visible spectrum, but only the 400-700 nm range was used in the data analysis. In lifetime mode, the full nanosecond-resolved fluorescence emission waveform is acquired following excitation with a 473 nm pulsed microchip laser. […]
Fluorescence decay waveforms for lifetime determination, were detected directly as previously described. […] A full fluorescence decay waveform was detected in response to each laser pulse over a 128 ns time window, using a photomultiplier module from Hamamatsu (Cat #H10720-210), and a proprietary transient digitizer from Fluorescence Innovations (Minneapolis, Minn.). A 488 nm long-pass filter from Semrock (Rochester, N.Y.) and 517/20 bandpass emission filter (lifetime mode), were used, ensuring that only emission from the GFP donor was detected. […]

SERCA2a = SERCA2a (Homo sapiens, UniProt P16615); details: binding to SERCA2a, literature; cited from earlier work
Chain of SERCA2a (P16615 1-997 isoform P16615-2, species assumed): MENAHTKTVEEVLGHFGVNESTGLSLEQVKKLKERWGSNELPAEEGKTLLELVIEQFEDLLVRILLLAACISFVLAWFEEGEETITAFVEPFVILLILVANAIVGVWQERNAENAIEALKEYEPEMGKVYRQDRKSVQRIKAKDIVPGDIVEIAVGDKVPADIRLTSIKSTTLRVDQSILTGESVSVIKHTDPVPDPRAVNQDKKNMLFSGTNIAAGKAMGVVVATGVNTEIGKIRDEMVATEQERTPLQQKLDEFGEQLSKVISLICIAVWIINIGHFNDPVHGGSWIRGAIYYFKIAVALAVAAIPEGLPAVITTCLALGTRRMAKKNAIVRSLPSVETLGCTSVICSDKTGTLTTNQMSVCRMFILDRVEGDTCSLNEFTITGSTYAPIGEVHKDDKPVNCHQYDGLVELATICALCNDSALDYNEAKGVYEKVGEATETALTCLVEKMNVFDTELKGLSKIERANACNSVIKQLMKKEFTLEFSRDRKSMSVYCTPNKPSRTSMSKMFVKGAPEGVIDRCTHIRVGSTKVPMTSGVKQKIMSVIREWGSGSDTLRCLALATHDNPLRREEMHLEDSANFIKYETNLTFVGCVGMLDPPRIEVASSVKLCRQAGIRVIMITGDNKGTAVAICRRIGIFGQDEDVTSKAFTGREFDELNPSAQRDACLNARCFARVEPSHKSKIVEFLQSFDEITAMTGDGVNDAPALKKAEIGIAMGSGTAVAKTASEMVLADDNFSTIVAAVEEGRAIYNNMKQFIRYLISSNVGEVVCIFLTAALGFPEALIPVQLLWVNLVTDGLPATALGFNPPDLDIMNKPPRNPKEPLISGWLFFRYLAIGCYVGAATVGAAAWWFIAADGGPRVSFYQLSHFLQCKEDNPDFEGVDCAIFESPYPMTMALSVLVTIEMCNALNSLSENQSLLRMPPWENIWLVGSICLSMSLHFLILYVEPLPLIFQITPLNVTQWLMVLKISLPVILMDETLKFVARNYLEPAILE

SMILES: Oc1cc(Cl)ccc1Oc1ccc(Cl)cc1Cl [triclosan]
cytosolic calcium (cytosolic calcium): increase cytosolic calcium

SMILES: c1ccc(-c2ccc(C(c3ccccc3)n3ccnc3)cc2)cc1 (stereo not shown) [bifonazole]
2CS FRET hit identification [1]: hits

SMILES: CC(C)(C)c1cc(O)c(C(C)(C)C)cc1O [BHQ, 1,4-dihydroxy-2,5-di-tert-butylbenzene]
T50 (rate of calcium depletion) [3]: 17.4 min

SMILES: C/C=C(/C)C(=O)O[C@H]1C(C)=C2[C@H]([C@@H]1OC(=O)CCCCCCC)[C@@](C)(OC(C)=O)C[C@H](OC(=O)CCC)[C@@]1(O)[C@H]2OC(=O)[C@@]1(C)O [thapsigargin]
reduction in FRET efficiency ([4]; 50 nM thapsigargin, lifetime mode, versus donor-only control): 6% | 2CS structural equilibrium between open and closed states ([4]; global lifetime analysis): shifts this equilibrium substantially toward the open state | 2CS structural equilibrium between open and closed states ([4]; global lifetime analysis, listed as Thapsigargin): greatly increasing the population of the more open and disordered structural state | pEC50 ([4]; read-out: EC50 of closed state mole fraction, global lifetime analysis, two-state model): 8.66 | increase in the GFP lifetime ([4]; saturating concentration, 50 nM): 200 picosecond | pKi (SERCA2a): 8.70 | reduction in FRET ([1]; 50 nM thapsigargin, spectral mode, average of 32 wells): 8% | pEC50 ([3]; Homo sapiens, HEK293, 2 h, ER calcium depletion at 120 min time point, read-out: equilibrium constant of sigmoidal D1ER FRET response): 8.71 | T50 (rate of calcium depletion) [3]: 9.5 min

More lines, main results first:

2CS FRET hit identification [1]: hits
SMILES: Clc1ccc(COC(Cn2ccnc2)c2ccc(Cl)cc2Cl)c(Cl)c1 (stereo not shown) [miconazole]
Raman scattering, compound aggregation [2]: decreases inelastic light scattering (Raman band) | ER calcium depletion ([3]; over 120 minutes): largest amount of ER calcium depletion

2CS FRET hit identification [1]: hit
SMILES: Clc1ccccc1C(c1ccccc1)(c1ccccc1)n1ccnc1 [clotrimazole]

— patent US20210255195A1, “HIGH PRECISION SPECTRAL FRET ASSAYS” (Regents of the University of Minnesota, priority 2017, published 2021)
